According to patent publication EP2818467A1, “Multi-target drug compounds for the treatment of neurodegenerative disorders” (Universitat de Barcelona, priority 2013, dated 2014):
“Also recorded” adds a separate entry of the source.

Tests used:
Format in all cases: in vivo
APP/PS1 mice [1] = assay: two-object recognition test (V-maze), cognitive performance; conditions: male APP/PS1 mice, 5 month-old, 5 mg/kg i.p. once daily for 4 weeks, FIG 1; for memory impairment in the two-object recognition test: tested after 2 days of washing period, 5 mg/kg
Experimental: (§1) Animals and treatment: The experiments were carried out on male APP/PS1 mice, which express the human mutated forms APPswe and PS1dE9, and wild-type (WT) littermates which were 5 month-old at the beginning of the study. In the present work, identification of transgenic mice was carried out as follows: genomic DNA was isolated from 1-cm tail clips and genotyped by polymerase chain reaction (PCR) technique using the PCR conditions proposed by Jackson Laboratory. Animals were maintained under standard animal housing conditions in a normal 12-h dark-light cycle with free access to food and water. The sample size for experimentation was computed using the Power and Precision software (Biostat, Englewood, NJ, USA), assuming a power of 95% and no missing data. Animal procedures were conducted according to ethical guidelines (European Community Council Directive 86/609/EEC) and approved by the local ethical committee (UB-IDIBELL). […]
Behavioral evaluation of cognitive performance: The two-object recognition test was performed. […] On the second day, mice were placed for 9 min in the maze, where two identical objects were situated at the end of the arms, and the time that the mice spent exploring each object was recorded. […] The time that the animals spent exploring the two objects was recorded and an object recognition index was calculated as the difference between the time spent exploring the novel and the familiar object, divided by the total time spent exploring the two objects.
(§2) Densitometric quantification of glia around Aβ plaques: Astrocytic and microglial responses to Aβ deposition were evaluated by densitometric quantification of GFAP and Iba1 protein expression levels around Aβ plaques, respectively. […] Statistical analysis: Data were analyzed by two-way ANOVA with genotype and treatment or age as between factors, followed by Tukey's post hoc test when required. Aβ and glia quantifications were analyzed by one-way ANOVA followed by Tukey's post hoc test when required.

APP/PS1 mice [2] = assay: glial (GFAP) and Aβ double-immunofluorescence, astrocytes around Aβ plaques; conditions: 5 mg/kg i.p. once daily for 4 weeks, FIG 3
Experimental: as §1
(§3) Tissue Collection: At the end of the behavioral testing, the animals were sacrificed and their brains were removed. One brain hemisphere was dissected on ice, immediately frozen and stored at -80 °C until processing for protein or RNA quantification. […]
(§4) Glial and Aβ double-immunofluorescence: De-waxed sections were stained with a saturated solution of Sudan black B (Merck) for 30 min to block the autofluorescence of lipofuscin granules present in cell bodies, then rinsed in 70% ethanol and washed in distilled water. […] After washing, the sections were incubated with Alexa488 or Alexa546 (1:400, Molecular Probes) fluorescence secondary antibodies against the corresponding host species. […]
as §2, with “Aβ and glia quantifications were analyzed by one-way ANOVA followed by Tukey's post hoc test when required.” left out

APP/PS1 mice [3] = assay: Aβ immunohistochemistry, Aβ burden in neocortex; conditions: 5 mg/kg/day i.p. for 4 weeks, compared to vehicle-treated animals
Experimental: Animals and treatment: The experiments were carried out on male APP/PS1 mice, which express the human mutated forms APPswe and PS1dE9, and wild-type (WT) littermates which were 5 month-old at the beginning of the study. In the present work, identification of transgenic mice was carried out as follows: genomic DNA was isolated from 1-cm tail clips and genotyped by polymerase chain reaction (PCR) technique using the PCR conditions proposed by Jackson Laboratory. Animals were maintained under standard animal housing conditions in a normal 12-h dark-light cycle with free access to food and water. The sample size for experimentation was computed using the Power and Precision software (Biostat, Englewood, NJ, USA), assuming a power of 95% and no missing data. Animal procedures were conducted according to ethical guidelines (European Community Council Directive 86/609/EEC) and approved by the local ethical committee (UB-IDIBELL). The compounds (5 mg/kg) were dissolved in 1% DMSO and 99% saline, and were injected intraperitoneally (i.p.) in a volume of 10 mL/kg body weight. Animals were treated once daily for 4 weeks with (αS,7R,11R)-(Ia), (αS,7S,11S)-(Ia), (±)-(Ib), (±)-(Ic) or the corresponding vehicle (VEH) (wild-type, n = 6; APP/PS1, n = 6, each group). After 2 days of washing period, animals were subjected to behavioral evaluation.
Tissue Collection: At the end of the behavioral testing, the animals were sacrificed and their brains were removed. One brain hemisphere was dissected on ice, immediately frozen and stored at -80 °C until processing for protein or RNA quantification. The other brain hemisphere was fixed in 4% paraformaldehyde and processed for immunohistochemistry.
Aβ immunohistochemistry: Tissue samples were embedded in paraffin and coronal sections (4 µm) were cut with a microtome. […] No immunostaining was detected in these sections. […] The Aβ burden in neocortex was calculated as the percentage of the Aβ deposition area with respect to the total area in 9 representative pictures, corresponding to the main regions where Aβ deposition is observed in APP/PS1 mice. Sections from all the APP/PS1 animals were evaluated by using the Analysis tool of the software Adobe® Photoshop® CS4.
as §2

APP/PS1 mice [4] = assay: glial (Iba1) and Aβ double-immunofluorescence, microglia around Aβ plaques; conditions: 5 mg/kg i.p. once daily for 4 weeks, compared to vehicle-treated APP/PS1 animals, FIG 4
Experimental: Animals and treatment: The experiments were carried out on male APP/PS1 mice, which express the human mutated forms APPswe and PS1dE9, and wild-type (WT) littermates which were 5 month-old at the beginning of the study. In the present work, identification of transgenic mice was carried out as follows: genomic DNA was isolated from 1-cm tail clips and genotyped by polymerase chain reaction (PCR) technique using the PCR conditions proposed by Jackson Laboratory. Animals were maintained under standard animal housing conditions in a normal 12-h dark-light cycle with free access to food and water. […]
as §3, §4

SMILES | memory impairment in the two-object recognition test (APP/PS1 mice [1]) | number of astrocytes around Aβ plaques (GFAP/Aβ) (APP/PS1 mice [2]) | Aβ burden in the cortex (APP/PS1 mice [3]; FIG 2, 5 mg/kg/day) | number of microglial cells associated with Aβ plaques (Iba1/Aβ) (APP/PS1 mice [4]) | Aβ burden in the cortex (APP/PS1 mice [3]; FIG 2) | recognition index (APP/PS1 mice [1]; compared to vehicle-treated animals)
CC[C@@H](C(=O)NCCCCCCCNc1c2c(nc3cc(Cl)ccc13)C[C@H]1C=C(C)C[C@@H]2C1)N1CCCC1=O [(αS,7S,11S)-(Ia), (-)-(αS,7S,11S)-N-{7-[(3-chloro-6,7,10,11-tetrahydro-9-methyl-7,11-methanocycloocta[b]quinolin-12-yl)amino]heptyl}-2-(2-oxopyrrolidin-1-yl)butanamide] | did not exhibit memory impairment; also recorded: reverse the memory impairment | produced a tendency to reduce | tends to reduce; also recorded: reduction in the cortical Aβ plaques deposition | decreased microglial reaction |  | 
CCC(C(=O)NCCCCCCCNc1c2c(nc3cc(Cl)ccc13)CCCC2)N1CCCC1=O (racemic) [(±)-(Ib), (±)-N-{7-[(6-chloro-1,2,3,4-tetrahydroacridin-9-yl)amino]heptyl}-2-(2-oxopyrrolidin-1-yl)butanamide] |  | produced a tendency to reduce |  |  | tends to reduce | 
CC[C@@H](C(=O)NCCCCCCCNc1c2c(nc3cc(Cl)ccc13)C[C@@H]1C=C(C)C[C@H]2C1)N1CCCC1=O [(αS,7R,11R)-(Ia), (+)-(αS,7R,11R)-N-{7-[(3-chloro-6,7,10,11-tetrahydro-9-methyl-7,11-methanocycloocta[b]quinolin-12-yl)amino]heptyl}-2-(2-oxopyrrolidin-1-yl)butanamide] |  | produced a tendency to reduce |  |  | tends to reduce | 
CCC(C(=O)NCCCCCCCNc1c2c(nc3ccccc13)CCCC2)N1CCCC1=O (racemic) [(±)-(Ic), (±)-N-{7-[(1,2,3,4-tetrahydroacridin-9-yl)amino]heptyl}-2-(2-oxopyrrolidin-1-yl)butanamide] | did not exhibit memory impairment; also recorded: reverse the memory impairment |  |  |  | tends to reduce | significantly increased
